The values below come from US10689392B2, “Anti-cancer compounds targeting ral GTPases and methods of using the same” (The Regents of the University of Colorado, a body corporate, priority 2011, dated 2020).

Data set [1] deals with MiaPaCa2 pancreatic cell line. The settings on record: cited from earlier work.
The test system of data set [2] is lung cancer cell lines A549, H2009, H358, H460, SW1573. Briefly: Combination testing with MEK inhibitor AZD6244 in lung cancer cell lines. Type of data set: cell-based, human. The settings on record: in conjunction with MEK inhibitor AZD6244, lung cancer cell lines.
A further data set concerns the target T1, RalB (Homo sapiens, UniProt P11234).
T1 construct: Xenograft tumors were collected 2 h (RBC10) or 3 h (RBC8) after injection; from tissue; host or cells: H2122 human lung cancer xenograft tumours grown subcutaneously in female nude mice
T1 sequence (P11234 1-206): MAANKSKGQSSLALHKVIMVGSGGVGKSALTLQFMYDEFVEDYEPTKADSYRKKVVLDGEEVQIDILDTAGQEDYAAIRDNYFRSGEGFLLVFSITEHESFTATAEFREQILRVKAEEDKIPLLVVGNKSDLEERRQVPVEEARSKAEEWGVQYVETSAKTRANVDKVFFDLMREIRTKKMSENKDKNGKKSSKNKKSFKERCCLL
Briefly: RalB activity in H2122 xenograft tumors, RalBP1 pull-down. Type of data set: in vivo, mice. The settings on record: single IP dose 50 mg/Kg, tumors collected 2 h (RBC10) or 3 h (RBC8) after injection, FIG. 12B. As to the method:
(§1) Human lung cancer cell line H2122 was inoculated subcutaneously into female nude mice and allowed to grow until tumors reached an average size of 200 mm^3. Mice were given a single IP dose of 50 mg/Kg RBC8, RBC10, or DMSO control. Xenograft tumors were collected 2 h (RBC10) or 3 h (RBC8) after injection. RalA and RalB activity in tumors were measured by pull-down assay using RalBP1 agarose beads and normalized to total protein.

A short description of data set [3]: Pharmacokinetics in mice after intraperitoneal or oral administration. Type of data set: in vivo. As to conditions: mouse, blood; for half-life: read-out: t½ (converted). How it is done: The pharmacokinetics of certain Ral-GTPase inhibiting compounds of the invention were evaluated in mice. Following intraperitoneal injection or oral administration, blood samples were collected over several hours and drug concentrations were evaluated by capillary coupled with Time of Flight (TOF) spectrometry.

The target in another data set is T2, RalA (Homo sapiens, UniProt P11233).
T2 construct: Xenograft tumors were collected 2 h (RBC10) or 3 h (RBC8) after injection; from tissue; host or cells: H2122 human lung cancer xenograft tumours grown subcutaneously in female nude mice
T2 sequence (P11233 1-206): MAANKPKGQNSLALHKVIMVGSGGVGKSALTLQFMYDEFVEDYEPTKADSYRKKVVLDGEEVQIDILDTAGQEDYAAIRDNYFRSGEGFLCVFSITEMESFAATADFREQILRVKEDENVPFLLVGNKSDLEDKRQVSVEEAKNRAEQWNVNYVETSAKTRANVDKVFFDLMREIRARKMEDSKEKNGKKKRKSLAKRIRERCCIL
As to the kind of experiment: RalA activity in H2122 xenograft tumors, RalBP1 pull-down. The settings on record: single IP dose 50 mg/Kg, tumors collected 2 h (RBC10) or 3 h (RBC8) after injection, FIG. 12A. Type of data set: in vivo, mice. As to the method:
as §1

In data set [4] the test system is bladder cancer cell lines CRL2169, J82, KU7, MGHU4, LULU2, UMUC3. Briefly: Combination testing with MEK inhibitor AZD6244 in bladder cancer cell lines. Type of data set: cell-based, human. The settings on record: in conjunction with MEK inhibitor AZD6244, bladder cancer cell lines.

Like-named read-outs stand apart in the source and are kept apart here.

Consider `COC(=O)[C@H](CC(C)C)NC(=O)N1CCN(Cc2nc[nH]c2C)C(=O)[C@@H]1Cc1ccccc1` [GGTI-2417], for which, in data set [1], the “in vitro growth and survival” value is “inhibit the in vitro growth and survival”.
The term AUC(0-inf) denotes total exposure, with the tail of the curve extrapolated. Low values mean less exposure, high ones more exposure. Broadly, the AUC(0-t) is exposure summed from dosing to a finite time, without extrapolation to infinity. What is called Cmax is the maximum level reached in the sampled fluid or tissue. A word on the Tmax: it is the time from dosing to the highest level. With `CCCCC(=O)N1c2ccccc2NC2=C(C(=O)CCC2)C1c1ccccc1Cl` (stereo not drawn) [RBC10, 11-(2-chlorophenyl)-10-pentanoyl-2,3,4,5,10,11-hexahydro-1H-dibenzo[b,e][1,4]diazepin-1-one], in data set [2], the “efficacy of the combination with AZD6244” value is recorded as “synergistic efficacy”. In addition, on RalB, the “RalB activity in tumors” value is “inhibition of RalB”. In addition, in data set [3] (intraperitoneal (IP)), the AUC(0-inf) is 30500 ng·h/mL, the AUC(0-t) is 30300 ng·h/mL, the Cmax came out at 23.4 µM and the Tmax was found to be 1 h. Moreover, in data set [3] (intraperitoneal (IP)), the half-life was 3.7 h. For the same molecule, in data set [3] (oral (PO)), the AUC(0-inf) was 5220 ng·h/mL, the AUC(0-t) was determined as 4750 ng·h/mL, the Cmax stood at 2.3 µM and the Tmax came out at 1 h. In addition, the half-life in data set [3] (oral (PO)) is 1.9 h. For the same molecule, the “RalA activity in tumors” value at RalA is listed as “inhibition of RalA”. The “efficacy of the combination with AZD6244” value in data set [4] is “synergistic efficacy”.
